Columns and labels:
[1] = system: Human cancer cell lines expressing c-Met and/or phospho-c-Met; test: Cytotoxicity MTS assay; type: cell-based; settings: 0.03 to 30 μM
Description: Various cancer cell lines were treated with (−)-trans-3-(5,6-dihydro-4H-pyrrolo[3,2,1-ij]quinolin-1-yl)-4-(1H-indol-3-yl)pyrrolidine-2,5-dione at indicated concentrations ranging from 0.03 to 30 μM. The sensitivity of these cells to (−)-trans-3-(5,6-dihydro-4H-pyrrolo[3,2,1-ij]quinolin-1-yl)-4-(1H-indol-3-yl)pyrrolidine-2,5-dione was measured by a standard cytoxicity MTS assay (FIG. 10). Human cancer cell lines expressing c-Met and/or phospho-c-Met were sensitive to (−)-trans-3-(5,6-dihydro-4H-pyrrolo[3,2,1-ij]quinolin-1-yl)-4-(1H-indol-3-yl)pyrrolidine-2,5-dione.

phospho-c-Met = molecular target: T1, phospho-c-Met (Homo sapiens, UniProt P08581); test: Phospho-c-Met in HT-29 xenograft tumors (immunohistochemistry, Western blotting); type: in vivo, mice; settings: single dose 300 mg/kg, 24 hours later
T1 construct: from tissue; host or cells: HT-29 xenograft tumour in mice
Description: A human colon cancer xenograft model with HT-29 human colon cancer cells was established as described in Example 23. The tumor-bearing mice were treated with a single dose of (−)-trans-3-(5,6-dihydro-4H-pyrrolo[3,2,1-ij]quinolin-1-yl)-4-(1H-indol-3-yl)pyrrolidine-2,5-dione (300 mg/kg). The reduction of phospho-c-Met was detected immunohistochemically 24 hours later. […] Western blotting of the tumor sample for phospho-c-Met confirmed the immunohistochemical analysis (FIG. 11, Panel B).

[2] = system: A549 human lung cancer cells; test: Annexin V / propidium iodide apoptosis staining; type: cell-based; set-up: dose or concentration left out as unconfirmed
Description: A549 human lung cancer cells in a 96-well plate (Costar 3603, 5,000/well) were treated with either A) DMSO as a control; B) […] (−)-trans-3-(5,6-dihydro-4H-pyrrolo[3,2,1-ij]quinolin-1-yl)-4-(1H-indol-3-yl)pyrrolidine-2,5-dione for 38 hours before addition of 1:200 fluorescent Annexin V (green) and 1:500 Propidium iodide (magenta, final concentration of […]). The labeling procedure was allowed to process at 37° C. for 20 minutes followed by image acquisition and analysis using an IC100 Image Cytometer (Beckman Coulter, Inc) with 10× amplification. To determine whether (−)-trans-3-(5,6-dihydro-4H-pyrrolo[3,2,1-ij]quinolin-1-yl)-4-(1H-indol-3-yl)pyrrolidine-2,5-dione works primarily through a cytostatic or apoptotic mechanism, cancer cells exposed to (−)-trans-3-(5,6-dihydro-4H-pyrrolo[3,2,1-ij]quinolin-1-yl)-4-(1H-indol-3-yl)pyrrolidine-2,5-dione were stained with fluorescently labeled Annexin V (green fluorescence) and propidium iodide (bright magenta fluorescence). Annexin V is a well-validated reagent that specifically binds with high affinity to externalized membrane phosphatidylserine, an early marker of the onset of apoptosis, while propidium iodide is a marker for dead cells. […] (See, FIG. 6)

c-Met = c-Met (Homo sapiens, UniProt P08581); test: c-Met phosphorylation in MDA-MB-231 cells, basal and HGF-induced (Western blot); type: cell-based; set-up: Whole cell extracts were prepared in lysis buffer; endogenous in cells; host or cells: MDA-MB-231; settings: serum-deprived 16 hours, 100 ng/ml HGF/SF for 10 minutes
Description: MDA-MB-231 cells were serum-deprived overnight (16 hours) in the absence or in the presence of the indicated concentrations of the separate enantiomers (+)-trans-3-(5,6-dihydro-4H-pyrrolo[3,2,1-ij]quinolin-1-yl)-4-(1H-indol-3-yl)pyrrolidine-2,5-dione and (−)-trans-3-(5,6-dihydro-4H-pyrrolo[3,2,1-ij]quinolin-1-yl)-4-(1H-indol-3-yl)pyrrolidine-2,5-dione. Cells were treated with 100 ng/ml recombinant human Hepatocyte Growth Factor/Scatter Factor (HGF/SF) (R&D Systems #294-HG) for 10 minutes. Whole cell extracts were prepared in lysis buffer (20 mM Tris-HCl pH 7.5, 150 mM NaCl, 1 mM Na2EDTA, 1 mM EGTA, 1% Triton X-100, 2.5 mM sodium pyrophosphate, 1 mM beta-glycerophosphate, 1 mM Na3VO4, 1 μg/ml leupeptin, 1 mM phenylmethylsulfonyl fluoride) and sonicated. Protein concentration was measured by Bradford assay using the BioRad reagent (BioRad, Hercules, Calif.), according to the manufacturer's directions. Samples ([…] of protein) were resolved by 8% SDS-PAGE under reducing conditions and transferred onto a PVDF membrane (BioRad). […] Proteins were detected by incubation overnight at 4° C. in TBS-T with 5% milk and either a polyclonal antibody against phosphorylated c-Met (#3121) or a monoclonal antibody against β-actin (A-5441) (Sigma), which was used as a control for total protein loading. […]

[3] = system: human pancreatic cancer MIA PaCa2; test: Human pancreatic cancer xenograft; type: in vivo; settings: monotherapy
Description: The efficacy of (−)-trans-3-(5,6-dihydro-4H-pyrrolo[3,2,1-ij]quinolin-1-yl)-4-(1H-indol-3-yl)pyrrolidine-2,5-dione was also tested in xenograft models with several other cancer cell lines: human pancreatic cancer MIA PaCa2 (FIG. 9, Panel B), human prostate cancer PC3 (FIG. 9, Panel C) and human gastric cancer MKN45 (FIG. 9, Panel D). The cells were treated with (−)-trans-3-(5,6-dihydro-4H-pyrrolo[3,2,1-ij]quinolin-1-yl)-4-(1H-indol-3-yl)pyrrolidine-2,5-dione as a monotherapy at indicated concentrations.

T1 sequence (P08581 25-1390): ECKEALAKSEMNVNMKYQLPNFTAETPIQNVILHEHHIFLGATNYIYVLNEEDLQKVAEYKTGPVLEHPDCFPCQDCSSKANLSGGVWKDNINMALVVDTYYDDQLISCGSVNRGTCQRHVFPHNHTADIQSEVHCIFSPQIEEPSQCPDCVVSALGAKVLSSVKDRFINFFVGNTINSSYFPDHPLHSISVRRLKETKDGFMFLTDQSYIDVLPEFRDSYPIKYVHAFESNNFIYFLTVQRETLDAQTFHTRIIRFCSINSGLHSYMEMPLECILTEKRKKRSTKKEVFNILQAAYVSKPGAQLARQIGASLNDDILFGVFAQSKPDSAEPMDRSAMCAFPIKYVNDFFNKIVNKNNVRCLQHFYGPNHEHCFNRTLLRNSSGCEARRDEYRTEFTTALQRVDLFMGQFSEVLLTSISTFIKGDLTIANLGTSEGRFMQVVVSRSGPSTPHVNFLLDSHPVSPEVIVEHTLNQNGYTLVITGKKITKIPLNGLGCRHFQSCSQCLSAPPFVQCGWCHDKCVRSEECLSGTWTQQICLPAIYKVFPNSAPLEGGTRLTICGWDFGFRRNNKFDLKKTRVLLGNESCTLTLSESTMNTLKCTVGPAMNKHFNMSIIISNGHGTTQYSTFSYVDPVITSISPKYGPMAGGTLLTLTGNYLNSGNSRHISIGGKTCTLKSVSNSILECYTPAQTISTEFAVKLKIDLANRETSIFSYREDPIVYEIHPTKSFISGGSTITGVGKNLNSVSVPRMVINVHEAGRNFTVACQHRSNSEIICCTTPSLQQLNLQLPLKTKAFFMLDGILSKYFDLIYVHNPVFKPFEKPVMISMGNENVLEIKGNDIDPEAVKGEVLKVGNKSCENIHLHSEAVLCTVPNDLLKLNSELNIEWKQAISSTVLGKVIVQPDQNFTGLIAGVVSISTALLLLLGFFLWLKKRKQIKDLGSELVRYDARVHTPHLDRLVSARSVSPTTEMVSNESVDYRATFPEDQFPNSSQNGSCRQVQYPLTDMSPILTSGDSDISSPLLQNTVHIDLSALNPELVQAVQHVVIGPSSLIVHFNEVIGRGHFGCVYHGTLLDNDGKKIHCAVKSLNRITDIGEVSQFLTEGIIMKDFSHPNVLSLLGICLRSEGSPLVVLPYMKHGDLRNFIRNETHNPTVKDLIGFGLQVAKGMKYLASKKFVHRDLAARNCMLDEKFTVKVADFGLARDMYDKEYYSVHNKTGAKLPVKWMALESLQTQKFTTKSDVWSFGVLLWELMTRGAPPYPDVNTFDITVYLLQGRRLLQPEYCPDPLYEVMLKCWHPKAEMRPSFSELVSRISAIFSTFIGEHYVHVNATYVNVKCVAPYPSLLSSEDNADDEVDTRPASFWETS
c-Met, sequence (P08581 25-1390): as above

Which “sensitivity (cytotoxicity MTS assay)” value [1] does the source give for `O=C1NC(=O)[C@@H](c2cn3c4c(cccc24)CCC3)[C@@H]1c1c[nH]c2ccccc12` (single isomer, unassigned) [(−)-trans-3-(5,6-dihydro-4H-pyrrolo[3,2,1-ij]quinolin-1-yl)-4-(1H-indol-3-yl)pyrrolidine-2,5-dione] here?
The value was “sensitive”.

What about the “amount of phospho-c-Met in tumor” value (phospho-c-Met) of the same compound?
The value was “significant decrease in the amount of phospho-c-Met”.

What about the “apoptosis (Annexin V staining)” value [2] of the same compound?
Its value is “induced cells to undergo apoptosis”.

And the “cells co-stained with both Annexin V and propidium iodide (dead cells)” value [2]?
The value was 10-20%.

What about the “concentration that inhibits both basal and HGF-induced autophosphorylation of c-Met” value (c-Met) of the same compound?
The value was “at least 30 nM”.

What about the tumor growth [3] of the same compound?
The tumor growth was “significantly inhibited tumor growth”.

From patent US8871933B2, “Purified pyrroloquinolinyl-pyrrolidine-2,5-dione compositions and methods for preparing and using same” (ArQule, Inc., priority 2009, dated 2014)
